Details of data set [1]: species or system humans. As to conditions: human, in vivo. An excerpt: According to disclosed data, an average clinical half-life of the control Tirzepatide in humans is 5.0 days.
The nature of data set [2]: in vivo. Details: species or system SD rats. Conditions: rat, sc, 1.35 mg/kg; for MRT: male, SD. How it is done: The polypeptide derivative (1) and Tirzepatide were subcutaneously administered to male rats respectively in a single dose, blood samples of the male rats were then collected at different time points, and a concentration of the compound in plasma was determined by LC-MS/MS and related pharmacokinetic parameters were calculated, to investigate the pharmacokinetic characteristics of the compound in the rats.
16 male SD rats were randomly divided into two groups of eight rats each based on body weights. The rats were fasted for 12 h to 14 h, but water was allowed, one day before the administration. The rats were given food 4 h after the administration.
Sample collection: Before and after the administration, 0.1 mL of blood was sampled from the orbit of each rat under isoflurane anaesthesia, and then added in an EDTAK2 centrifuge tube in an ice bath to be centrifuged at 4° C. at 5000 rpm for 10 min. Then, plasma was collected.
Time points for blood collection of SC groups are 0, 5 min, 15 min, 30 min, 1 h, 2 h, 4 h, 6 h, 8 h, 24 h, 28 h, 32 h, and 48 h. All plasma samples were stored at −80° C. before analysis and testing.
The software Analyst 1.5.1 (Applied Biosystem) was used for data collection and system control. Automatic chromatographic peak integration was used for the sample. The sample concentration was regressed with a ratio of the sample peak area to the internal standard peak area as an index. Linear regression was used with a weighting factor of 1/X^2. Pharmacokinetic parameters were analyzed and processed with a non-compartmental model by using WinNonlin Professional v6.3 (Pharsight, USA). Cmax is a measured maximum plasma concentration. An area AUC(0→t) under a plasma concentration-time curve is obtained through ladder-shape calculation. Tmax is a time of a peak plasma concentration after the administration. The experimental data was expressed as “mean±standard deviation” (Mean±SD, n≥8) or “mean” (Mean, n=8).
Based on the plasma concentration data, the pharmacokinetic parameters after the administration calculated with the on-compartmental model by using WinNonlin V6.3 are shown in the following table.

For data set [3] the following is noted: human, in vivo; cited from earlier work.

Molecules are shown by their SMILES. Read-outs that look alike come from different tables or passages of the source. Square brackets hold non-standard residues; d marks the D form. Peptide text beside a SMILES is read from it. * marks the point of attachment. X1 = O=C(O)CCCCCCCCCCCCCCCCCCC(=O)NC(CCC(=O)NCCOCCOCCNC(=O)COCCOCC(=O)*)C(=O)O; Aib = CC(C)(N)C(=O)O

The text below walks through data of patent publication US20240360193A1, “POLYPEPTIDE DERIVATIVE WITH DUAL GLP-1R AND GIPR TARGETING AGONISTIC EFFECT, AND PREPARATION METHOD AND USE THEREOF” (NANJING ZHIHE MEDICINE TECHNOLOGY CO., LTD., priority 2021, published 2024).

Usually half-life stands for the time needed for the level to fall by half in the phase considered. Read a high half-life as slow decline. What is called MRT is a mean duration of stay, worked out from the concentration-time curve. Usually AUC(0-inf) stands for total exposure, with the tail of the curve extrapolated. What is called AUC(0-t) is the area under the concentration-time curve up to a stated or last time point. As usually defined, the Cmax is the peak of the concentration-time curve. For orientation: Tmax means the time at which the peak concentration occurs.

The compound `CC[C@H](C)[C@H](NC(=O)[C@H](CCCCN)NC(=O)[C@H](CC(=O)O)NC(=O)[C@H](CC(C)C)NC(=O)C(C)(C)NC(=O)[C@@H](NC(=O)[C@H](CO)NC(=O)[C@H](Cc1ccc(O)cc1)NC(=O)[C@H](CC(=O)O)NC(=O)[C@H](CO)NC(=O)[C@@H](NC(=O)[C@H](Cc1ccccc1)NC(=O)[C@@H](NC(=O)CNC(=O)[C@H](CC(=O)O)NC(=O)C(C)(C)NC(=O)[C@@H](N)Cc1ccc(O)cc1)[C@@H](C)O)[C@@H](C)O)[C@@H](C)CC)C(=O)N[C@@H](C)C(=O)N[C@@H](CCC(N)=O)C(=O)N[C@@H](CCCCNC(=O)COCCOCC(=O)NCCOCCOCCNC(=O)CCC(NC(=O)CCCCCCCCCCCCCCCCCCC(=O)O)C(=O)O)C(=O)N[C@@H](C)C(=O)N[C@@H](Cc1ccccc1)C(=O)N[C@H](C(=O)N[C@@H](CCC(N)=O)C(=O)N[C@@H](Cc1c[nH]c2ccccc12)C(=O)N[C@@H](CC(C)C)C(=O)N[C@@H](CC(C)C)C(=O)N[C@@H](C)C(=O)NCC(=O)NCC(=O)N1CCC[C@H]1C(=O)N[C@@H](CO)C(=O)N[C@@H](CO)C(=O)NCC(=O)N[C@@H](C)C(=O)N1CCC[C@H]1C(=O)N1CCC[C@H]1C(=O)N1CCC[C@H]1C(=O)N[C@@H](CO)C(N)=O)C(C)C` (some centres unmarked) [Polypeptide derivative (1)] (H-Y[Aib]DGTFTSDYSI[Aib]LDKIAQK(X1)AFVQWLLAGGPSSGAPPPS-NH2) gave a half-life in data set [1] of 189 h. In data set [2], this compound showed an MRT of 33.6 h, an area under the curve AUC(0-inf) of 89700 ng·h/mL, an AUC(0-t) of 70400 ng·h/mL and an AUMC0-inf of 3022264 h · h · ng · mL^−1. Besides, in data set [2], the AUMC0-t is on record as 1621331 h · h · ng · mL^−1, the Cmax is 2070 ng/mL, the Kel amounted to 0.0421 h⁻¹ and the Tmax was 25.3 h. In data set [2], this compound showed a half-life of 16.7 h.
As for `CC[C@H](C)[C@H](NC(=O)[C@H](CC(C)C)NC(=O)[C@H](Cc1c[nH]c2ccccc12)NC(=O)[C@H](CCC(N)=O)NC(=O)[C@@H](NC(=O)[C@H](Cc1ccccc1)NC(=O)[C@H](C)NC(=O)[C@H](CCCCNC(=O)COCCOCCNC(=O)COCCOCCNC(=O)CC[C@H](NC(=O)CCCCCCCCCCCCCCCCCCC(=O)O)C(=O)O)NC(=O)[C@H](CCC(N)=O)NC(=O)[C@H](C)NC(=O)[C@@H](NC(=O)[C@H](CCCCN)NC(=O)[C@H](CC(=O)O)NC(=O)[C@H](CC(C)C)NC(=O)C(C)(C)NC(=O)[C@@H](NC(=O)[C@H](CO)NC(=O)[C@H](Cc1ccc(O)cc1)NC(=O)[C@H](CC(=O)O)NC(=O)[C@H](CO)NC(=O)[C@@H](NC(=O)[C@H](Cc1ccccc1)NC(=O)[C@@H](NC(=O)CNC(=O)[C@H](CCC(=O)O)NC(=O)C(C)(C)NC(=O)[C@@H](N)Cc1ccc(O)cc1)[C@@H](C)O)[C@@H](C)O)[C@@H](C)CC)[C@@H](C)CC)C(C)C)C(=O)N[C@@H](C)C(=O)NCC(=O)NCC(=O)N1CCC[C@H]1C(=O)N[C@@H](CO)C(=O)N[C@@H](CO)C(=O)NCC(=O)N[C@@H](C)C(=O)N1CCC[C@H]1C(=O)N1CCC[C@H]1C(=O)N1CCC[C@H]1C(=O)N[C@@H](CO)C(N)=O` [Tirzepatide], the “average clinical half-life in humans” value in data set [3] is 120 h. Besides, in data set [2], the mean residence time MRT stood at 25.6 h, the AUC(0-inf) came to 52100 ng·h/mL, the AUC(0-t) worked out at 46700 ng·h/mL and the AUMC0-inf is given as 1352210 h · h · ng · mL^−1. Besides, in data set [2], the AUMC0-t turned out to be 1003190 h · h · ng · mL^−1, the peak level (Cmax) was 1540 ng/mL, the Kel stood at 0.0680 h⁻¹ and the time of peak concentration (Tmax) came to 20 h. This compound also gave a half-life in data set [2] of 10.6 h.
